Tests used:
[1] = system: bovine cartilage explants; assay: GAG release inhibition (IL-1 induced) in bovine cartilage explants, Blyscan colorimetric assay; type: cell-based; details: for reduction in the GAG release induced by IL-1 (result in words): bovine explants, compared to culture stimulated with IL-1 in the presence of 0.25% DMSO
Method: (§1) Glycosaminoglycan (GAG) release is a test used to evaluate the effects of the compounds of the present invention on proteoglycan degradation induced by IL-1.
(§2) Full-depth articular cartilage were dissected from the metacarpophalangeal joints of calves of approximately 6 months of age or human cartilage from joint replacement surgery (approximately 4 mm diameter punches for bovine cartilage and 2 mm for human cartilage). After an equilibration period of 24 hours, explants were cultured for one day in 200 µl DMEM + hydrolyzed lactalbumin + 50 µg/ml vitamin C + penicillin/streptomycin + ITS (Insulin-Transferrin-Selenium) in the presence or absence of the compounds. After one day, GAG release was induced by addition of 10 ng of IL-1. Six days after IL-1 induction, the cartilage and culture medium were collected for analysis. During this six day period the culture medium was replaced every two days.
(§3) GAG release was analyzed using the Blyscan® colorimetric assay (Biocolor, Belfast, UK). To measure GAG content of the cartilage explants, the tissue was digested with papain. The culture medium of day 4, 6 and 8 was pooled before GAG analysis. GAG release was expressed as percentage of the total GAG content of the explants (i.e. GAG medium + GAG in papain digest).
(§4) A control condition with 0.25% DMSO was included because the test compounds were dissolved in DMSO. A condition with glucosamine hydrochloride was added for comparison.
(§5) Each culture condition was performed with cartilage of five different paws/patients to account for biological variation.
(§6) ANOVA followed by LSD post-hoc tests were used for determining differences between groups (p≤ 0.05 was considered significant).
(§7) Results in Tables 3 and 4 were expressed as a percentage reduction in GAG release compared to the control condition with DMSO stimulated with IL-1.

human cartilage explants = assay: GAG release inhibition (IL-1 induced) in human cartilage explants, Blyscan colorimetric assay; type: cell-based; details: for reduction of GAG release (result in words): doses 50 µM, 100 µM and 250 µM
Method: as §1, §2, §3, §4, §5, §6, §7

[2] = Bos taurus, bovine cartilage explants, percentage reduction in GAG release vs 0.25% DMSO + IL-1 control, * p≤ 0.05, (Inactive) = not statistically significant

Compound	reduction in the GAG release induced by IL-1 (result in words) [1]	inhibition at 100 µM [1, 2]	further results
2-deoxy-2-(pent-4-enoylamino)-3-O-[4-methoxyphenyl(ethoxy-L-prolinyl)]phosphoramidate-D-glucopyranose [Compound 87]	statistically significant reduction of the GAG release	–	GAG release inhibition ([1]; 250 µM, bovine cartilage explants, percentage reduction in GAG release vs 0.25% DMSO + IL-1 control, * p≤ 0.05, (Inactive) = not statistically significant): 33.3%*
COc1ccc(OP(=O)(O[C@H]2[C@H](O)[C@@H](CO)OC(O)[C@@H]2NC(C)=O)N2CCC[C@H]2C(=O)OCc2ccccc2)cc1 (stereo partly drawn) [Compound 1, 2-acetamido-2-deoxy-3-O-[4-methoxyphenyl(benzyloxy-L-prolinyl)]phosphoramidate-D-glucopyranose]	statistically significant reduction of the GAG release	–	reduction of GAG release (result in words) (human cartilage explants): statistically significant activity
COc1ccc(OP(=O)(N[C@H](C(=O)OCc2ccccc2)C(C)C)O[C@H]2[C@H](O)[C@@H](CO)OC(O)[C@@H]2NC(C)=O)cc1 (stereo partly drawn) [Compound 16, 2-acetamido-2-deoxy-3-O-[4-methoxyphenyl(benzyloxy-L-valinyl)]phosphoramidate-D-glucopyranose]	statistically significant reduction of the GAG release	27%	–
CCOC(=O)[C@@H]1CCCN1P(=O)(Oc1ccc(OC)cc1)O[C@H]1[C@H](O)[C@@H](CO)OC(O)[C@@H]1NC(C)=O (some centres unmarked) [Compound 31]	statistically significant reduction of the GAG release	–	–
CCOC(=O)[C@@H]1CCCN1P(=O)(Oc1ccc(OC)cc1)O[C@H]1[C@H](O)[C@@H](NC(C)=O)C(O)O[C@@H]1CO (stereo partly drawn) [Compound 32, 2-acetamido-2-deoxy-4-O-[4-methoxyphenyl(ethoxy-L-prolinyl)]phosphoramidate-D-glucopyranose]	statistically significant reduction of the GAG release	–	–
CCC(C)OC(=O)[C@@H](NP(=O)(Oc1ccc(OC)cc1)O[C@H]1[C@H](O)[C@@H](CO)OC(O)[C@@H]1NC(C)=O)C(C)C (stereo partly drawn) [Compound 58, 2-acetamido-2-deoxy-3-O-[4-methoxyphenyl(2-butoxy-L-valinyl)]phosphoramidate-D-glucopyranose]	statistically significant reduction of the GAG release	41%	–
C=CCCC(=O)N[C@H]1C(O)O[C@H](CO)[C@@H](O)[C@@H]1OP(=O)(N[C@H](C(=O)OCc1ccccc1)C(C)C)Oc1ccc(OC)cc1 (stereo partly drawn) [Compound 61, 2-deoxy-2-(pent-4-enoylamino)-3-O-[4-methoxyphenyl(benzyloxy-L-valinyl)]phosphoramidate-D-glucopyranose]	statistically significant reduction of the GAG release	47%	–
COc1ccc(OP(=O)(N[C@H](C(=O)OCc2ccccc2)C(C)C)O[C@H]2[C@H](O)[C@@H](CO)OC(O)[C@@H]2N)cc1 (stereo partly drawn) [Compound 63, 2-amino-2-deoxy-3-O-[4-methoxyphenyl(benzyloxy-L-valinyl)]phosphoramidate-D-glucopyranose]	statistically significant reduction of the GAG release	31%	–
CCCCCOC(=O)[C@@H]1CCCN1P(=O)(Oc1ccc(OC)cc1)O[C@H]1[C@H](O)[C@@H](NC(C)=O)C(O)O[C@@H]1CO (stereo partly drawn) [Compound 69, 2-acetamido-2-deoxy-4-0-[4-methoxyphenyl(n-pentoxy-L-prolinyl)]phosphoramidate-D-glucopyranose]	statistically significant reduction of the GAG release	–	–
CC(=O)N[C@H]1C(O)O[C@H](CO)[C@@H](O)[C@@H]1OP(=O)(Oc1ccccc1)N1CCC[C@H]1C(=O)OCc1ccccc1 (stereo partly drawn) [Compound 74, 2-acetamido-2-deoxy-3-O-[phenyl(benzyloxy-L-prolinyl)]phosphoramidate-D-glucopyranose]	statistically significant reduction of the GAG release	–	–
CCOC(=O)[C@@H]1CCCN1P(=O)(Oc1cccc2ccccc12)O[C@H]1[C@H](O)[C@@H](CO)OC(O)[C@@H]1NC(C)=O (stereo partly drawn) [Compound 80, 2-acetamido-2-deoxy-3-O-[1-naphtyl(ethoxy-L-prolinyl)]phosphoramidate-D-glucopyranose]	statistically significant reduction of the GAG release	–	–
Cl.N[C@H]1C(O)O[C@H](CO)[C@@H](O)[C@@H]1O (some centres unmarked) [Glucosamine Hydrochloride]	did not caused any statistically significant reduction	0%	inhibition at 50 µM (human cartilage explants; 50 µM, percentage reduction in GAG release vs 0.25% DMSO + IL-1 control, * p≤ 0.05, (Inactive) = not statistically significant): 7.8%; inhibition at 100 µM (human cartilage explants; 100 µM, percentage reduction in GAG release vs 0.25% DMSO + IL-1 control, * p≤ 0.05, (Inactive) = not statistically significant): 11.9%; inhibition at 250 µM (human cartilage explants; 250 µM, percentage reduction in GAG release vs 0.25% DMSO + IL-1 control, * p≤ 0.05, (Inactive) = not statistically significant): 11.9%; reduction of GAG release (result in words) (human cartilage explants): inactive; inhibition at 250 µM ([1]; Bos taurus, 250 µM, bovine cartilage explants, percentage reduction in GAG release vs 0.25% DMSO + IL-1 control, * p≤ 0.05, (Inactive) = not statistically significant): 0%
COc1ccc(OP(=O)(NC(C(=O)OCc2ccccc2)C(C)C)OC[C@H]2OC(O)[C@H](NC(C)=O)[C@@H](O)[C@@H]2O)cc1 (some centres unmarked) [Reference compound 4, reference compound]	–	3%	–
COc1ccc(OP(=O)(NC(C(=O)OCc2ccccc2)C(C)C)OC[C@H]2OC(O)[C@H](N)[C@@H](O)[C@@H]2O)cc1 (some centres unmarked) [Reference compound 5, reference compound]	–	4%	–
